# According to paper PMC8001353, “Tryptophanol-Derived Oxazolopyrrolidone Lactams as Potential Anticancer Agents against Gastric Adenocarcinoma” (Pharmaceuticals, 2021):
# What was measured:
# MG-63 (osteosarcoma) = experiment: MTT cytotoxicity assay in MG-63; assay type: cell-based; settings: Homo sapiens, 48 h incubation, mean ± SD
# Description: (§1) The cytotoxicity was assessed in different cell lines with the endpoint MTT, using previously reported procedure. The following cells were obtained from the American Type Culture Collection: human embryonic kidney epithelial cell line (HEK 293T, ATCC HBT-22™), breast cancer cell line (MDA-MB-231, ATCC HTB-26™), osteosarcoma cell line (MG-63, ATCC CRL-1427™), gastric adenocarcinoma cell line (AGS, ATTC CRL-1739TM), prostate cancer cell line (DU-145, ATTC HTB-81™), and lung carcinoma cell line (A-549, ATCC CCL-185™). All cell lines were seeded at 2 × 10^4 cells/well with exception of A-549 cell line, which was seeded at 5 × 10^3 cells/well.
# A-549 (lung carcinoma) = experiment: MTT cytotoxicity assay in A-549; assay type: cell-based; settings: Homo sapiens, A549, 48 h incubation, mean ± SD
# Description: as §1
# [1] = test system: caspase 3/7 activity in AGS cells; experiment: Caspase 3/7 activity assay (Ac-DEVD-AMC fluorimetric) in AGS cells; assay type: cell-based, human; settings: 48 h incubation at 12.5 µM, vs control, p < 0.05
# Description: The activity of caspase 3/7 was determined by fluorimetric assay based on the hydrolysis of the peptide substrate acetyl-Asp-Glu-ValAsp-7-amido-4-methylcoumarin (Ac-DEVD-AMC) by caspase 3/7 using a previously reported procedure.
# [2] = test system: human gastric adenocarcinoma (AGS) cell line; experiment: MTT reduction assay, cell viability / cytotoxicity in AGS cell line; assay type: cell-based; settings: for potency relative to hit 7c (times more potent / fold more active): AGS cells, ratio of IC50 values; for viability at 50 µM: Homo sapiens, AGS cell line, cell viability, MTT, 48 h incubation, mean ± SD, read-out: % CV at 50 µM
# Description: as §1
# [3] = Buffer (PBS pH 7.4) stability; assay type: physicochemical; settings: PBS pH 7.4, 24 h incubation, 37 °C
# Description: (§2) Human plasma was obtained from healthy volunteers and provided by Instituto Português do Sangue, Lisbon, Portugal. Buffer and human plasma stabilities were determined by standard methodology. Specifically, human plasma was centrifuged (5 min, 2000× g, room temperature) and, then, diluted 50% in PBS buffer (pH 7.4). The reactions were initiated by the addition of a solution of compound 7s (4 mM in DMSO, 25 µL) to 975 µL of plasma solution, at 37 °C, obtaining a final concentration of 100 µM. Solutions were stirred at 37 °C and 100 µL aliquots were collected at different time points: 0, 30, 60, 120, and 180 min (one additional aliquot was collected at 24 h). A cold reserpine solution (internal standard, 5 µM in acetonitrile, 300 µL) was then added to quench the reactions. Following centrifugation (10 min, 10,000× g, room temperature), the clear supernatants were stored at −20 °C until further analysis by HPLC-DAD. Assays were run in duplicate and procaine was used as a positive control for plasma stability. Additional control assays were conducted using PBS (pH 7.4) instead of a plasma solution. HPLC-DAD analysis was performed as previously described.
# [4] = Metabolic stability in human liver microsomes with NADPH; assay type: in vitro ADME
# Description: The evaluation of the metabolic stability of compound 7s was conducted in human liver microsomes (GIBCO^TM, 20 donors) by a previously reported procedure. Specifically, for a total incubation volume of 1 mL, in 100 mM phosphate buffer at pH 7.4, 7s (10 μM), human liver microsomes (0.8 mg protein/mL), NADPH (1 mM), and NADPH regeneration system (10 µL, Vivid® Regeneration System, 100×) were used. Nevirapine was used as a positive control. Additional control incubations were performed in the absence of 7s or NADPH, and using heat-denatured (90 °C, 15 min) microsomes. The resulting mixtures were incubated at 37 °C, and all assays were run in duplicate. Aliquots (50 µL) were collected at different time points (0, 5, 10, 20, 30, 40, 50, 60, 75, 90, 120, and 180 min and 24 h) and 50 µL of cold reserpine solution (2.5 µM in acetonitrile) was then added to quench the reactions. Following centrifugation (10 min, 10,000× g, 4 °C), the supernatants were stored at −20 °C until LC-MS and LC-HRMS/MS analysis.
# Samples from the metabolic stability assay were analyzed by LC-MS using the experimental conditions previously described. The in vitro depletion half-life of 7s, t1/2, was calculated using Equation (1), assuming that the compound follows a first-order kinetic trend (see Supplementary Materials Figure S2). The “slope” was determined from linear fitting of the natural logarithm of the concentration of drug remaining plotted against time. (1) t1/2=ln2/slope
# The intrinsic clearance was calculated using Equation (2) (2) CLint = 0.693/ t1/2 × mL incubation/mg microsomes × 45 mg microsomes/g liver × 26 g liver/Kg b.w.
# Human plasma stability = assay type: in vitro ADME; settings: human plasma diluted 50% in PBS, 24 h incubation, 37 °C, 100 µM
# Description: as §2
structure (smiles),measurement,setting,value
"O=C1CC[C@]2(c3ccc(-c4ccc(C(F)(F)F)cc4)cc3)OC[C@@H](Cc3c[nH]c4ccccc34)N12 [Compound 7o, (3R,7aR)-3-((1H-indol-3-yl)methyl)-7a-(4’-(trifluoromethyl)-[1,1’-biphenyl]-4-yl)tetrahydropyrrolo[2,1-b]oxazol-5(6H)-one]",IC50,MG-63 (osteosarcoma),26.8 ± 0.4 µM
same,IC50,A-549 (lung carcinoma),> 60 µM
same,caspase 3/7 activity,[1],significant increase
same,potency relative to hit 7c (times more potent / fold more active),[2],2.3
same,viability at 50 µM,[2],7 ± 1%
"O=C1CC[C@]2(c3ccc(-c4ccc(Cl)c(Cl)c4)cc3)OC[C@@H](Cc3c[nH]c4ccccc34)N12 [Compound 7s, (3R,7aR)-3-((1H-indol-3-yl)methyl)-7a-(3’,4’-dichloro-[1,1’-biphenyl]-4-yl)tetrahydropyrrolo[2,1-b]oxazol-5(6H)-one]",IC50,A-549 (lung carcinoma),> 60 µM
same,caspase 3/7 activity,[1],significant increase
same,stability in PBS,[3],chemical stability in PBS conditions
same,potency relative to hit 7c (times more potent / fold more active),[2],2.3
same,viability at 50 µM,[2],8 ± 1%
same,in vitro metabolic stability,[4],moderately stable
same,intrinsic hepatic clearance (CLint),[4]; calculated from t1/2 (Equation 2),22.8 min⁻¹ mL⁻¹ kg⁻¹
same,half-life at 10 µM,"[4]; pH 7.4, 10 µM, 37 °C, read-out: half-life (t1/2)",45 min
same,stability in human plasma,Human plasma stability,stability in PBS conditions and under plasmatic enzyme activity
